Laboratory results published in patent EP2276483B1, “SOLID FORMS COMPRISING (+)-2-[1-(3-ETHOXY-4-METHOXYPHENYL)-2-METHYLSULFONYLETHYL]-4-ACETYLAMINOISOINDOLINE-1,3-DIONE, COMPOSITIONS THEREOF, AND USES THEREOF” (CELGENE CORPORATION, priority 2008, dated 2009).

What was measured:
cAMP = assay: PGE2-induced cAMP elevation in human PBMC; format: cell-based; details: PGE2 (10µM)
Experimental: Prostaglandin E2 (PGE2) binds to prostanoid receptors on monocytes, T cells and other leukocytes and consequently elevates intracellular cAMP levels, resulting in inhibition of cellular responses. The combination of PGE2 and a PDE4 inhibitor synergistically elevates cAMP levels in these cell types, and the elevation of cAMP in PBMC caused by PDE4 inhibitors in the presence of PGE2 is proportional to the inhibitory activity of that PDE4 inhibitor. Intracellular cAMP was measured in human PBMC as follows. PBMC were isolated as described above and plated in 96-well plates at 1 x 10^6 cells per well in RPMI-1640. The cells were pre-treated with compounds at 100, 10, 1, 0.1, 0.01, and 0 µM in a final concentration of 2% DMSO in duplicate at 37°C in a humidified incubator at 5% CO2 for one hour. The cells were then stimulated with PGE2 (10µM) (Sigma) for 1h. The cells were lysed with HCl, 0.1 N final concentration to inhibit phosphodiesterase activity and the plates were frozen at -20°C. The cAMP produced was measured using cAMP (low pH) Immunoassay kit (R&D Systems).

[1] = Aqueous equilibrium solubility in pH 7.4 buffer; format: physicochemical; details: pH 7.4
Experimental: Equilibrium solubilities were measured in pH 7.4 aqueous buffer. The pH 7.4 buffer was prepared by adjusting the pH of a 0.07 M NaH2PO4 solution to 7.4 with 10 N NaOH. The ionic strength of the solution was 0.15. At least 1 mg of powder was combined with 1 ml of buffer to make >1 mg/ml mixture. These samples were shaken for >2 hours and left to stand overnight at room temperature. The samples were then filtered through a 0.45-µm Nylon syringe filter that was first saturated with the sample. The filtrate was sampled twice, consecutively. The filtrate was assayed by HPLC against standards prepared in 50% methanol.

CD11b = assay: fMLF-induced CD11b expression on neutrophils; format: cell-based; details: Neutrophil; human neutrophils; 30 nM fMLF
Experimental: CD18/CD11b (Mac-1) expression on neutrophils was measured as previously described (Derian et al., 1995, J. Immunol., 154:308-3 17) with the following modifications. Neutrophils were isolated as described above, then resuspended in complete medium at 1x10^6 cells/ml, pretreated with compounds at 10, 1, 0.1, 0.01, and 0 µM in duplicate at a final DMSO concentration of 0.1% for 10 minutes at 37°C 5%CO2. Cells were then stimulated with 30 nM fMLF for 30 minutes and then chilled to 4°C. Cells were treated with rabbit IgG (Jackson ImmunoResearch Labs, West Grove, PA, USA) (10 µg/1x10^6 cells) to block Fc receptors, stained with CD18-FITC and CD11b-PE (Becton Dickinson), and analyzed by flow cytometry on a FACSCalibur. CD18/CD11b expression (mean fluorescence) in the absence of stimulation was subtracted from all samples to obtain inhibition curves and calculate IC50 values.

IL-2 = assay: cells; format: cell-based; details: Homo sapiens, PBMC, read-out: IL-2 IC50

In the case of `CCOc1cc(C(CS(C)(=O)=O)N2C(=O)c3cccc(NC(C)=O)c3C2=O)ccc1OC` (single isomer, unassigned; (+)) [Compound A, (+)-2-[1-(3-ethoxy-4-methoxyphenyl)-2-methylsulfonylethyl]-4-acetylaminoisoindoline-1,3-dione], the EC50 (cAMP) is reported as 1580 nM, the Measured solubility [1] is reported as 12 µg/mL and the “greater aqueous solubility than the racemic mixture” value [1] is reported as 3.5 fold. The IC50 (CD11b) was 74 nM and the IC50 (IL-2) was 291 nM.
